From ChEMBL document CHEMBL1137945, “Design, synthesis, and activity of HDAC inhibitors with a N-formyl hydroxylamine head group” (Bioorg Med Chem Lett, 2004)

Assays:
Jurkat = test: Compound was tested for anti-proliferative activity in Jurkat human leukemia cell line; type: functional, cell-based
U-937 = test: Compound was tested for anti-proliferative activity in U-937 human leukemia cell line; type: functional, cell-based
Histone deacetylase = test: Inhibition of Histone deacetylase (HDAC)of HeLa nuclear extracts; type: protein assay, Homo sapiens
Histone deacetylase 2 = Histone deacetylase 2 (Homo sapiens, UniProt Q92769); test: Inhibition of Histone deacetylase 2 (HDAC2) activity of HeLa nuclear extracts
Histone deacetylase 8 = target: T1, Histone deacetylase 8 (Homo sapiens, UniProt Q9BY41)
T1 sequence (Q9BY41 whole entry): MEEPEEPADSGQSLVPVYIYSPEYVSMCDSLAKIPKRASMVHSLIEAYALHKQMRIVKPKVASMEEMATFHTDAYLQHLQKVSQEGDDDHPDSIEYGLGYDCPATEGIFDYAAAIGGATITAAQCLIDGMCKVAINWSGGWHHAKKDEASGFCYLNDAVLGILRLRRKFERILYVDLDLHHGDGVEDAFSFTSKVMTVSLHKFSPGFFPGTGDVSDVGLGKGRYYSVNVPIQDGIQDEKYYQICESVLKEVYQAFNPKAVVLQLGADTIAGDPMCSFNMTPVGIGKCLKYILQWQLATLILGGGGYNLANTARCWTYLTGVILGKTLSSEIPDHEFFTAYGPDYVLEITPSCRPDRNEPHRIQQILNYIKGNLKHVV
Description: Inhibition of Histone deacetylase 8 (HDAC8) of HeLa nuclear extracts

[1] = target: T2, Protein deacetylase HDAC6 (Homo sapiens, UniProt Q9UBN7)
T2 sequence (Q9UBN7 whole entry): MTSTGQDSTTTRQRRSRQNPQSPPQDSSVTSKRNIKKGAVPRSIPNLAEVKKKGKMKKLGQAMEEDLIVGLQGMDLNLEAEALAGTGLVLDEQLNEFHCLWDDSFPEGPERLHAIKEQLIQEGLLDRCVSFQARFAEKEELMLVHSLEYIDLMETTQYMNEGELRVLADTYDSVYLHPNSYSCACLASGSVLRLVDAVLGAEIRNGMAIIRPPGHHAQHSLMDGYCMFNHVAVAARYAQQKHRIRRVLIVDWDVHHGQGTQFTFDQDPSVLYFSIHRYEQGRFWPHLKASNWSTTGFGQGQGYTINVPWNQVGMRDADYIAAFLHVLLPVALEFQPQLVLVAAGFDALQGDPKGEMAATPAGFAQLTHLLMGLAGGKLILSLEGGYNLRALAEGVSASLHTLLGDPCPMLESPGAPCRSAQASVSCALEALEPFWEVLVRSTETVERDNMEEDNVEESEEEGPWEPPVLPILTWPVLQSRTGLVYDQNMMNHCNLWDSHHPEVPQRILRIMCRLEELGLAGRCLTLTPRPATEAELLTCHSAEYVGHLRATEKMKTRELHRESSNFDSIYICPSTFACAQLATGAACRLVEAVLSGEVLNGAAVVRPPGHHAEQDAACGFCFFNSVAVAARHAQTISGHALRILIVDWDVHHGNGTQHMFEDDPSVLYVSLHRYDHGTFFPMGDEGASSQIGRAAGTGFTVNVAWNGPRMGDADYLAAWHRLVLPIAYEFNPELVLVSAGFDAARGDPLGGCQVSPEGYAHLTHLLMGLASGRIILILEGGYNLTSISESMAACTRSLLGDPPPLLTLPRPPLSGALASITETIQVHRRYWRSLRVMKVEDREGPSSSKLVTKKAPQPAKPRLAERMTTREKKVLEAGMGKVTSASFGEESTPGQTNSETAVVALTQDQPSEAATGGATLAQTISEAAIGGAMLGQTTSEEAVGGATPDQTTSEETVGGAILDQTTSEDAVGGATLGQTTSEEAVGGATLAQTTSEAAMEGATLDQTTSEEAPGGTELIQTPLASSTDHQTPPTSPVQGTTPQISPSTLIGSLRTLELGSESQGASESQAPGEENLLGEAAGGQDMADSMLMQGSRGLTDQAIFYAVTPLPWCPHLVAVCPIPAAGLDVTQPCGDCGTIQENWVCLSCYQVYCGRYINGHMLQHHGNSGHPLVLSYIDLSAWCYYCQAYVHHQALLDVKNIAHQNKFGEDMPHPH
Description: Inhibition of Histone deacetylase 6 (HDAC6) of HeLa nuclear extracts

Histone deacetylase 1 = Histone deacetylase 1 (Homo sapiens, UniProt Q13547)
Description: Inhibition of Histone deacetylase 1 (HDAC1) of HeLa nuclear extracts

Homo sapiens = species on record: Homo sapiens; test: Compound was tested for anti-proliferative activity in human hepatocytes; type: functional, organism-based; details: Hepatocyte
[2] = Activity in histone hyperacetylation assay in cells; type: functional
[3] = test system: bone marrow cells (Homo sapiens); test: cells

Sequence of Histone deacetylase 2 (Q92769 whole entry): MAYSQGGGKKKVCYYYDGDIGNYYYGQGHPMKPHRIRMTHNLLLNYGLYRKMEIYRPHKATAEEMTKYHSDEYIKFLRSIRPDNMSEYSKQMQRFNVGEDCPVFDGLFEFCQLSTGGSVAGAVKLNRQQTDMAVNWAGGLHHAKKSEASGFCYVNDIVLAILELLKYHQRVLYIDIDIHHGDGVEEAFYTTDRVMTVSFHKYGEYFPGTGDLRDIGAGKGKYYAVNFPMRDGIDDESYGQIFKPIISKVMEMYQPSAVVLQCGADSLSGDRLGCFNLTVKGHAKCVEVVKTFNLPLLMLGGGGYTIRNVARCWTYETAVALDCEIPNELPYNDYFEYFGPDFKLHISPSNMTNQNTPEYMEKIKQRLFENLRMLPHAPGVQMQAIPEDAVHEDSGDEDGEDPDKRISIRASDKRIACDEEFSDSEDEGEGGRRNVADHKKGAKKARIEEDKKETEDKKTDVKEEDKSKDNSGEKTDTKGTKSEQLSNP
Sequence of Histone deacetylase 1 (Q13547 whole entry): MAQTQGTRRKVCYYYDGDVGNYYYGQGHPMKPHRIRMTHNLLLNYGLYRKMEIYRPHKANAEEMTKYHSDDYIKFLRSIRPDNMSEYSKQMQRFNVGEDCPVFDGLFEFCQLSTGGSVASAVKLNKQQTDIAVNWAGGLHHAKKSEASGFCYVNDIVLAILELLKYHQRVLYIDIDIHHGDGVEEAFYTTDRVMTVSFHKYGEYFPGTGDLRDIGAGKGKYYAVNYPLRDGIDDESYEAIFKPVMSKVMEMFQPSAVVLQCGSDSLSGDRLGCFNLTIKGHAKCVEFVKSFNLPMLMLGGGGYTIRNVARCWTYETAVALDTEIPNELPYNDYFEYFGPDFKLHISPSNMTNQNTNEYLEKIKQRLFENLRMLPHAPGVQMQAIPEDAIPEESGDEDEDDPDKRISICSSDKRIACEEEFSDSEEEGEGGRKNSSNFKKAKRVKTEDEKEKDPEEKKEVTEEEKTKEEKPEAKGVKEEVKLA

Row | IC50 (Histone deacetylase) | IC50 (Histone deacetylase 2) | IC50 (Histone deacetylase 8) | IC50 [1] | IC50 (Histone deacetylase 1) | SMILES | EC50 (Jurkat) | EC50 (U-937) | EC50 (Homo sapiens) | EC50 [2] | EC50 [3]
1 |  |  |  |  |  | O=C(CCCCCCC(=O)Nc1ccccc1)NO [VORINOSTAT] | 2.3 µM | 33 µM |  |  | 
2 | > 100 µM | 41 µM | 9.7 µM | 30 µM | 49 µM | O=CN(O)CCCCCNC(=O)CCc1ccccc1 |  |  |  |  | 
3 | 4.4 µM | 1.4 µM | 7 µM | 0.6 µM | 1.3 µM | O=CN(O)CCCCCNC(=O)c1ccc2ccccc2c1 |  |  |  |  | 
4 | > 100 µM | 26 µM | 22 µM | 4.3 µM | 30 µM | O=CN(O)CCCCCNC(=O)c1ccccc1 |  |  |  |  | 
5 |  | > 100 µM | > 100 µM | > 100 µM |  | COC(=O)N(O)CCCCCCC(=O)Nc1ccccc1 |  |  |  |  | 
6 |  | 11 µM | 4 µM |  |  | O=CN(O)CCCCCCC(=O)Nc1ccccc1 |  |  |  |  | 
7 |  | 19 µM | 6.8 µM | 2.8 µM |  | O=CN(O)CCCCCC(=O)Nc1ccccc1 |  |  |  |  | 
8 | > 100 µM | > 100 µM | > 100 µM | > 100 µM |  | CC(=O)N(O)CCCCCC(=O)Nc1ccccc1 |  |  |  |  | 
9 | 50 µM | 5.9 µM | 0.65 µM | 3.1 µM | 5.7 µM | O=CN(O)CCCCCCCC(=O)Nc1cccc2ccccc12 |  |  |  |  | 
10 |  | > 100 µM | > 100 µM | > 100 µM |  | CC(=O)N(O)CCCCCCCC(=O)Nc1ccccc1 |  |  |  |  | 
11 |  | 7.8 µM | 2.8 µM | 5.5 µM |  | O=CN(O)CCCCCCCC(=O)Nc1ccccc1 |  |  |  |  | 
12 | 4 µM | 0.89 µM | 0.78 µM | 0.91 µM | 0.81 µM | O=CN(O)CCCCCCCC(=O)Nc1ccc2ccccc2c1 |  |  |  |  | 

Row | SMILES | IC50 (Histone deacetylase) | IC50 (Histone deacetylase 2) | IC50 (Histone deacetylase 8) | IC50 [1] | IC50 (Histone deacetylase 1) | EC50 (Jurkat) | EC50 (U-937) | EC50 (Homo sapiens) | EC50 [2] | EC50 [3]
13 | O=CN(O)CCCCCC(C(=O)Nc1ccc2ncccc2c1)C(=O)Nc1ccc2ncccc2c1 | 0.75 µM | 0.27 µM | 0.8 µM | 0.62 µM | 0.18 µM | 31 µM | 100 µM | > 500 µM | 10 µM | 130 µM
14 | O=CN(O)CCCCCC(C(=O)Nc1cnc2ccccc2c1)C(=O)Nc1cnc2ccccc2c1 | 0.97 µM | 0.2 µM | 0.69 µM | 0.78 µM | 0.16 µM | 11 µM | 40 µM | 41 µM | 5.1 µM | 78 µM
